Patent publication US20220409692A1, “Systems Chemico-Pharmacology Drugs and Methods of Use” (The Medical College of Wisconsin, priority 2019, published 2022)

Tests used:
MPO = target: T1, MPO (Homo sapiens, UniProt P05164); assay: KYC/AA(n) peptide inhibition of MPO HOCl production (TMB assay) at varied pH; type: biochemical; settings: regardless of pH
T1 sequence (P05164 49-745): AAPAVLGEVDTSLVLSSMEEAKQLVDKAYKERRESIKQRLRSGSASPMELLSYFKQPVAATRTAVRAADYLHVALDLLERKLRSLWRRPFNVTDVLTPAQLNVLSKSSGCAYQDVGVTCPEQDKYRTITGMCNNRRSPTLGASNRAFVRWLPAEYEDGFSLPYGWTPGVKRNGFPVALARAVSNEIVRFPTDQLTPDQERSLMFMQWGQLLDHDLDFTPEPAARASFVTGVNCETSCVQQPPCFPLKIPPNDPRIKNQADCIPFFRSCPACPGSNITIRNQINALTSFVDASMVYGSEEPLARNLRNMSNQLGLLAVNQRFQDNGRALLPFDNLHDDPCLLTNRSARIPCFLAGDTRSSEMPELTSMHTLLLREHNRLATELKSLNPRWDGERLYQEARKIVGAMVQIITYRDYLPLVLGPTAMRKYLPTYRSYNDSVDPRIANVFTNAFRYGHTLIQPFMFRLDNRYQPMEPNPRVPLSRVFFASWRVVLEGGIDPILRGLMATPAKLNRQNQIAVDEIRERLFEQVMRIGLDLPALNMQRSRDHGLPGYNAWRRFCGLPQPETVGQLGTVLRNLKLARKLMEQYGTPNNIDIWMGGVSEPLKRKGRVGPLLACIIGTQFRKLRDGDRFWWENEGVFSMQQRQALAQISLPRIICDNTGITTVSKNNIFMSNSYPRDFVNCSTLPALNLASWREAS
Excerpt: Small peptides of generic formula AA(n) (where AA represents different amino acids, and n can be 2-5) are both substrates and inhibitors of MPO (alternatively, inhibitors of EPO). These peptides are […] at the active site of MPO, which subsequently decreases the production of toxic oxidants that includes but not restricted to hypochlorous acid. All MPO activities (i.e., hypochlorous acid production) described herein were quantified by the 3,3′,5,5′-tetramethylbenzidine (TMB) assay. […] The free radical itself may act as an activated species, and is stable enough to react with proximal proteins, peptides, metabolites or small molecules to effect further change. The free radical is not limited to a single target, but may effect change multiple independent targets. In a non-limiting example, the free radical goes on to form a hetero- or homo dimer via an oxidized —S—S— disulfide (or di-Selenium) linkage. Finally, the more interactions between the peptide and active site of MPO that occurs the lower numerical IC50 value of the peptide inhibitor.
KYZ is […] in the presence of MPO, which subsequently decreases the production of hypochlorous acid. All MPO activities (i.e., hypochlorous acid production) were quantified by the 3,3′,5,5′-tetramethylbenzidine (TMB) assay. The tripeptide KXZ, requires amino acid #1 (AA1, K) to be a native amino acid or an artificial amino acid (aa) with a basic side-chain such as an amine functional group (e.g., Lysine (K)). Amino acid #2 (AA2, X) is a native or artificial amino acid that may contain a polar, non-polar, or aromatic amino acid.

HMGB1 = target: T2, HMGB1 (Homo sapiens, UniProt P09429); assay: Streptavidin-affinity blot of B-KYC thiylated recombinant HMGB1 and MPO in MPO reaction mixture; type: biochemical; settings: split sample, DTT 100 mM
T2 sequence (P09429 1-215): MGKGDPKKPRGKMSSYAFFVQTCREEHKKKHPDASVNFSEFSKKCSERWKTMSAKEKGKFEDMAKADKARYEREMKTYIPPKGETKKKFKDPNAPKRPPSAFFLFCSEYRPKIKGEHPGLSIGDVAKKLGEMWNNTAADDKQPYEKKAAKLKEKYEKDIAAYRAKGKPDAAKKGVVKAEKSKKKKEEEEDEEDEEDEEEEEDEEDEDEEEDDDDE
Protocol: FIG. 30. MPO Oxidizes KYC to a KYC Thiyl Radical That Thiylates HMGB1. (A) ESR spectrum of KYC thiyl S°-DMPO generated by an MPO reaction mixture containing MPO (120 nM), H2O2 (50 μM) and KYC (30 μM). (B) Streptavidin-affinity blot of KYC thiylated HMGB1 and MPO in a split sample, one half treated neat and other half treated with DTT (100 mM) to reduce disulfide bonds.
This spectrum is similar to the spectrum of DMPO-S◯-YC generated when the dipeptide YC was added to an MPO reaction mixture containing DMPO [34].
Previously we reported that KYC reduced MPO-dependent oxidative damage because KYC competes with native substrates, such as chloride and nitrite, that are oxidized to “toxic” oxidants. In 2013, we argued that KYC reduced MPO-dependent oxidative damage because the resultant KYC thiyl radical would autoscavenge to prevent radical propagation. […] To determine the radical mechanisms mediating MPO oxidation of KYC and KYC thiylation of HMGB1, we performed two experiments. In the first experiment, we trapped KYC thiyl radicals generated by MPO with DMPO (FIG. 30A), which confirms our conclusions in 2013 [27]. In the second experiment, we added recombinant HMGB1 to PBS containing MPO+H2O2+B-KYC and determined KYC thiylation by streptavidin affinity blotting. […]

RLMVEC = assay: KYC thiylation of endothelial cell proteins in RLMVEC cultures; type: cell-based, rat
Excerpt: FIG. 29. Effects of Oxidative Stress on KYC Thiylation of RLMVEC Proteins. (A) Streptavidin affinity blot of KYC thiylated proteins from cell lysates prepared from RLMVEC cultures treated with B-KYC (baseline), B-KYC+MPO+H2O2 (MPO-dependent), and B-KYC+H2O2 (H2O2-dependent). (B) Immunoblot for Nrf2 in RLMVEC cultures treated as described in A. (C) Immunoblot for Keap1 in RLMVEC cultures treated as described in A. (D) Immunoblot for HMGB1 in RLMVEC cultures treated as described in A.(E) Immunoblot for β-Actin in RLMVEC cultures treated as described in A.(F) Bar chart showing relative levels of KYC thiylation, Nrf2, Keap1, and HMGB1 as a function of β-Actin (n=2, *=p<0.05, statistical analysis was preformed by ANOVA with appropriate post hoc tests).
FIG. 31. MPO Oxidation of KYC Increases KYC Thiylation of Extracellular HMGB1. […] This conclusion is based on the relative levels of KYC thiylated HMGB1 in panel A vs. KYC thiylated HMGB1 as a function of HMGB1 protein in conditioned media vs. RLMVEC cell lysates.
Rat lung microvascular endothelial cells (RLMVEC) from neonatal Sprague-Dawley rats (RN-6011) and rat endothelial growth medium (EGM, M1266SF) were from Cell Biologics (Chicago, Ill.). Amicon®Ultra-4 centrifugal concentrators with 3K cut-off (UFC800324) were from Merck Millipore Ltd (Carrigtwohill, Ireland). PierceTM Streptavidin (#88816), Protein G (#88848), Protein A Magnetic Beads (#88845), PierceTM ECL Western Blotting Substrate (#32106), and SuperSignalTM West Femto Maximum Sensitivity Substrate (#34095) were from Thermo Fisher Scientific (Waltham, MA). Rabbit antibodies for myeloperoxidase heavy chain (MPO, sc-33596) and TLR4 (sc-10741) were from Santa Cruz Biotechnology (Dallas, Texas). Rabbit antibody for Cl-Tyr (HP5002) was from Hycult Biotech (Plymouth Meeting, PA). The chicken antibody for HMGB1 (326052233) was from SHINO-TEST Corporation (Kanagawa, Japan). Rabbit antibody for RAGE (GTX23611) was from GeneTex (Irvine, CA). Mouse antibodies for PECAM-1/CD31 (ab24590), for 8-OH-dG (ab48508), and for rat endothelial cell antigen-1 (RECA-1, ab9774) were from Abcam (Cambridge, MA). Rabbit antibody for Cox1 (sc-7950) and Cox2 (sc-7951) were from Santa Cruz Biotechnology. Mouse (ab190377) and rabbit (ab77302b) antibodies for HMGB1, and streptavidin-HRP (ab7403) were from Abcam (Cambridge, Mass.). Rabbit antibody for acetylated-HMGB1 (OASG03545) was from Aviva System Biology (San Diego, Calif.). Rabbit antibodies for Nrf2 (sc-722) and TLR4 (sc-30002) were from Santa Cruz Biotechnology (Dallas, Tex.). Rabbit antibody against Keap1 (ABS97) and mouse antibody for β-actin (A2228) were from Millipore-Sigma (St. Louis, Mo.). Rabbit antibody for cysteine sulfonyl (ADI-OSA-820) was from Enzo Life Sciences (Farmingdale, N.Y.). Mouse antibody for glutathionylated proteins (D8) and all other chemicals were from Sigma-Aldrich (St. Louis, Mo.). All antibodies were certified either by the manufacturer or were used previously and certified by the authors, as was the case for the anti-HMGB1 antibody.
Effects of Oxidative Stress on KYC Thiylation on Endothelial Cell Proteins in RLMVEC Cultures: To determine the effects of oxidative stress on KYC thiylation, RLMVEC cultures were treated with B-KYC to follow KYC thiylation with streptavidin-affinity blotting as outlined in Methods. Three different levels of oxidative stress were used to determine the effects of oxidative stress on KYC thiylation of endothelial cell proteins: media alone (baseline); media containing MPO+H2O2 (MPO-dependent); and media containing H2O2 alone (H2O2-dependent) (FIG. 29A). KYC thiylation of RLMVEC proteins at baseline was low (FIG. 29A, first two lanes).

Row | Substance | inhibitory properties (IC50) KVC versus KVVC (MPO) | fluorescent band density of B-KYC thiylated HMGB1 and MPO (HMGB1) | KYC thiylation of RLMVEC proteins (RLMVEC; H2O2-dependent (media containing H2O2 alone)) | KYC thiylation of RLMVEC proteins (RLMVEC; MPO-dependent (media containing MPO+H2O2)) | KYC thiylation of RLMVEC proteins (RLMVEC; baseline (media alone))
1 | Ac-KVVC-amide [N-acetylated, C-amidated AA(n) peptide, KVC with an added amino acid] | improvement of inhibitory properties | – | – | – | –
2 | biotin-aminohexanoyl-N-[Ahx]-KYC-amide [B-KYC] | – | decreased in the sample treated with dithiothreitol | more than observed at baseline, but not as high as MPO-dependent B-KYC thiylation | markedly increased | low
